The source of these data is PubChem BioAssay AID463203 (Broad Institute, 2010).

The source made the active and inactive calls.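 The calls were made as follows: active = more than half of replicate measurements showing over 20% loss of kinase signal relative to plate controls; inconclusive = some but at most half of replicates over 20% loss; inactive = no replicate over 20% signal loss.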

For the test, the target named is Glycogen synthase kinase-3 alpha (Homo sapiens) (UniProt P49840). Nature of the test: concentration-response blocking of human GSK3A – biochemical, luminescence, cell-free homogeneous, retest, dose response (AID 463203). The conditions noted are these: GSK-3 alpha enzyme, ADP-Glo luminescence, 60 min. On the technique in general: ADP-Glo turns the ADP formed in a reaction into a luminescent signal.
Sequence of Glycogen synthase kinase-3 alpha (Homo sapiens) (P49840 whole entry, looked up): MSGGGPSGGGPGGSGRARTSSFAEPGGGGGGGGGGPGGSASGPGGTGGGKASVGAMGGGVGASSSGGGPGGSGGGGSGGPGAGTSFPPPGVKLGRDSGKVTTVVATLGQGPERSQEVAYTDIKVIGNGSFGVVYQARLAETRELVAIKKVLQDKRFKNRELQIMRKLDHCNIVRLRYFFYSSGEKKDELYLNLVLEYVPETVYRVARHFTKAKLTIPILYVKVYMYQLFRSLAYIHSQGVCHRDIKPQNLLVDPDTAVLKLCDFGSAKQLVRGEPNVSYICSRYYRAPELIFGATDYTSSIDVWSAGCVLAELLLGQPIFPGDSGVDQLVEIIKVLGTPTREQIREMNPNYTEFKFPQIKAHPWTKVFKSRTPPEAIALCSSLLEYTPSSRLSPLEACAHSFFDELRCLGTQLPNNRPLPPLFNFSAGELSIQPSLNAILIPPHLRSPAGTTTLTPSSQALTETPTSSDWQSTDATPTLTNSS

As a reminder, the AC50 is the concentration giving half of the maximal activity seen. Regarding `CCOc1ccc(Cn2nnc(C(=O)Nc3cc(OC)cc(OC)c3)c2N)cc1`, the AC50 was 13.7 µM.
As for `O=C(c1ccc2c3n(nc2c1)-c1ccc(Cl)cc1CO3)N1CCCCC1`, the AC50 is > 30 µM (inactive).
Take `Nc1ncnc2c1ncn2[C@@H]1O[C@H](CNCc2ccccc2)[C@@H](O)[C@H]1O`: the AC50 was > 30 µM (inactive).
On to `CCOCCOC(=O)c1[nH]c2c(c1C)C(=O)CC(c1cc(OC)c(OC)c(OC)c1)C2` (stereo unspecified), for which the AC50 was > 30 µM (inactive).
Regarding `O=C(O)COc1ccc2c(c1)O/C(=C\c1cccs1)C2=O`, the AC50 is 26.2 µM.
As for `Nc1cccc(C(=O)O)c1`, the figure is > 30 µM (inactive); as for `CCC(Oc1ccccc1)C(=O)Nc1ncc([N+](=O)[O-])s1` (stereo unspecified), > 30 µM (inactive); as for `CN1/C(=C\C=C(/C#N)C(=O)Nc2ccc(Cl)cc2)C(C)(C)c2ccccc21`, > 30 µM (inactive).
As for `COc1ccc(-c2oc3cc(O)c(OC)c(O)c3c(=O)c2OC)cc1`, the figure is > 30 µM (inactive).
In the case of `O=C(Nc1ccccc1C(=O)NC1CCCCC1)c1ccccc1`, the AC50 is > 30 µM (inactive).
For `O=C(Nc1cccc(-c2nc3cccnc3s2)c1)c1cccnc1Cl`, the AC50 was 8.59 µM.
As for `c1ccc2c(c1)ccc1nnc(SCc3ccc4c(c3)OCO4)n12`, the figure is > 30 µM (inactive); as for `COc1ccc(-c2cc(=O)c3ccccc3s2)cc1`, > 30 µM (inactive); as for `NC(=O)c1ccc(NCCCN2CCOCC2)c([N+](=O)[O-])c1`, > 30 µM (inactive).
With `CCOC(=O)c1cnc2cc(F)c(F)cc2c1N1CCN(C)CC1`, the AC50 was > 30 µM (inactive).
In the case of `CC1(C)CC(=O)C(CS(=O)(=O)c2ccccc2)=C(O)C1`, the AC50 was > 30 µM (inactive).
With `O=C1Nc2ccccc2Sc2ccccc21`, the AC50 is > 30 µM (inactive).
To `CC(Oc1ccc(Br)cc1)C(=O)N1CCC(C(N)=O)CC1` (stereo unspecified) belongs > 30 µM (inactive).
Turning to `CCCc1c(C(=O)N/N=C/c2cccnc2)nnn1-c1nonc1N`, the AC50 was > 30 µM (inactive).
As for `CCc1nnc(NS(=O)(=O)c2ccc(N/C=C(\C=O)c3nc4cc(Cl)ccc4o3)cc2)s1`, the figure is 9.24 µM; as for `CCOC(=O)C1CCN(c2c(C(=O)c3ccccc3)cnc3ccc(CC)cc23)CC1`, > 30 µM (inactive); as for `CCCCC(=O)Nc1sc2c(c1C(N)=O)CCC2`, > 30 µM (inactive).
Take `CCOC(=O)CSc1nc(C)[nH]c1[N+](=O)[O-]`: the AC50 is > 30 µM (inactive).
As to `Cc1c(C(=O)N/N=C/c2cccnc2)nnn1-c1nonc1N`, the AC50 was > 30 µM (inactive).
Regarding `Clc1ccc(C2=Nn3c(nnc3-c3cccs3)SC2)cc1`, the AC50 was > 30 µM (inactive).
As for `Cc1ccc(N=c2oc3cc(O)ccc3cc2C(N)=O)cc1`, the AC50 is 2.17 µM.
`NNC(=O)/C(=N/Nc1ccccc1)S(=O)(=O)c1ccc(Cl)cc1`: the AC50 is > 30 µM (inactive).
As for `CC1CN(c2nc(N(C)c3ccccc3)nc(N)c2[N+](=O)[O-])CC(C)O1` (stereo unspecified), the figure is > 30 µM (inactive).
As for `COc1cc(OC)cc(C(=O)O/N=C(\N)c2ccccn2)c1`, the AC50 was > 30 µM (inactive).
For the compound `Brc1ccc(-c2nnc3ccc(Nc4ccccc4)nn23)cc1`, the AC50 was > 30 µM (inactive).
For `CCN(CC)c1ccc2ccc(=O)oc2c1`, the AC50 is > 30 µM (inactive).
On to `COc1ccc(OCC(=O)N/N=C/c2ccc(N(C)C)cc2)cc1`, for which the AC50 is > 30 µM (inactive).
As for `COC(=O)c1c(C)c(OC(=O)c2c(C)cc(O)c(C=O)c2O)cc(C)c1O`, the AC50 is > 30 µM (inactive).
Take `CCOc1ccccc1-n1c(O)c(C=NCc2ccc3c(c2)OCO3)c(=O)[nH]c1=O`: the AC50 is 17.5 µM.
Take `O=C(O)c1ccc(N=Nc2c(O)[nH]c3ccc(Br)cc23)cc1`: the AC50 was 3.54 µM.
`Cc1c(C(=O)OC(C)C)[nH]c2c1C(=O)CC(C)(C)C2`: the AC50 was > 30 µM (inactive).
To `O=[N+]([O-])c1ccc(N/N=C/c2ccc(OCc3cccc4ccccc34)cc2)nc1` belongs > 30 µM (inactive).
To `CCCCOC(=O)C1=C(C)Nc2ncnn2C1c1ccc(OC)c(OC)c1OC` (stereo unspecified) belongs 12.4 µM.
For the compound `Cc1ccnc2ccc(SC(F)(F)F)cc12`, the AC50 was > 30 µM (inactive).
For the compound `CCc1cc(C(=O)c2ccc(OC)cc2)c(NC(=O)COCC(=O)O)s1`, the AC50 is > 30 µM (inactive).
In the case of `COc1ccc(-n2c(O)c(C(C)=NCCCn3ccnc3)c(=O)[nH]c2=O)cc1`, the AC50 is 19 µM.
Consider `Cc1cccc2cc(C#N)c(NCCNC(=S)NCCCN3CCOCC3)nc12`, for which the AC50 is > 30 µM (inactive).
For `CCCN(CCC)Cc1c(C(=O)N/N=C/C(C)=C\c2ccco2)nnn1-c1nonc1N`, the AC50 was > 30 µM (inactive).
Take `CCOC(=O)c1cc(CC)sc1NC(=O)COC(=O)c1ccccn1`: the AC50 is > 30 µM (inactive).
As to `Cc1c(C(=O)OC2CCCCC2)[nH]c2c1C(=O)CC(C)(C)C2`, the AC50 was > 30 µM (inactive).
To `Cc1cccc(C)c1OC(=O)C(c1ccccc1)c1ccccc1` belongs > 30 µM (inactive).
Turning to `CO/N=C/c1ccc(N2CCCC2)c([N+](=O)[O-])c1`, the AC50 is > 30 µM (inactive).
To `COc1ccccc1N/C=C/c1onc(C)c1[N+](=O)[O-]` belongs > 30 µM (inactive); to `CN(C)CCCNS(=O)(=O)c1ccc(-n2nnc3ccccc32)c([N+](=O)[O-])c1`, > 30 µM (inactive); to `CC(C)(C)OC(=O)N1CCC(NC(=O)c2[nH]cnc2C(=O)Nc2ccon2)CC1`, 4.47 µM.
As for `COc1ccccc1/C=N/NC(=O)c1nnn(-c2nonc2N)c1-c1cccs1`, the AC50 was 0.779 µM.
Turning to `CCc1nnc(NC(=O)c2cccc(S(=O)(=O)N3CC(c4ccccc4)CC3=O)c2)s1` (stereo unspecified), the AC50 is > 30 µM (inactive).
On to `O=C(Nc1nc2c(s1)CCCC2)c1ccc(Br)o1`, for which the AC50 is > 30 µM (inactive).
To `Cc1cccc(C(=O)Nc2nccs2)c1[N+](=O)[O-]` belongs > 30 µM (inactive).
On to `COc1ccc(Cn2nnc(C(=O)Nc3ccc(F)cc3)c2N)cc1`, for which the AC50 is > 30 µM (inactive).
With `Oc1ccc2oc3c(c2c1/C=N/n1cnnc1)CCCC3`, the AC50 was > 30 µM (inactive).
Consider `Cc1ccc2c(c1)Oc1ccc(NC(=O)CCl)cc1C(=O)N2`, for which the AC50 is > 30 µM (inactive).
Turning to `Cc1ccc(CSc2nnc(-c3cccnc3)o2)cc1`, the AC50 is > 30 µM (inactive).
As for `CCn1c(SCC(=O)Nc2ccc(C)cc2)nnc1-c1ccc(O)cc1`, the AC50 was > 30 µM (inactive).
On to `O=C(c1ccc(F)cc1)c1cnc(Nc2ccccc2)s1`, for which the AC50 is > 30 µM (inactive).
For `CCC(=O)c1ccc(OCC(O)CN2CCCCC2)cc1` (stereo unspecified), the AC50 was > 30 µM (inactive).
As to `O=C(N/N=C/c1ccc(O)c(O)c1)NC12CC3CC(CC(C3)C1)C2`, the AC50 is > 30 µM (inactive).
To `O=C(NCc1ccc(C(=O)N2CCC3(CC2)OCCO3)cc1)c1cccc(Br)c1` belongs > 30 µM (inactive); to `CCCCCCCNc1nc(Cl)nc(NCCO)n1`, > 30 µM (inactive); to `O=C(NCCCN1CCOCC1)c1ccc(Cl)cc1[N+](=O)[O-]`, > 30 µM (inactive).
To `CCOC(=O)c1[nH]c2c(c1-c1ccccc1)C(=O)CC(c1ccccc1)C2` (stereo unspecified) belongs > 30 µM (inactive); to `CCOC(=O)C1CCCN(c2c(C(=O)c3ccccc3)cnc3ccccc23)C1` (stereo unspecified), > 30 µM (inactive).
For the compound `CC(C)NC(=O)NC(=O)CSc1nncn1C`, the AC50 is > 30 µM (inactive).
Consider `O=C(O)c1ccc2c(c1)S(=O)(=O)c1cc(Cl)ccc1C2=O`, for which the AC50 was 6.54 µM.
Take `C=CCn1cnc2c(c1=O)c1nc3ccccc3nc1n2/N=C/c1cc(OC)c(OC)c(OC)c1`: the AC50 was > 30 µM (inactive).
In the case of `O=C1NC(=Nc2ccccc2Cl)S/C1=C\c1cc([N+](=O)[O-])ccc1O`, the AC50 was 3.23 µM.
In the case of `Cc1cccc(N=c2oc3cc(O)ccc3cc2C(N)=O)c1`, the concentration at half-maximal activity (AC50) was 5.52 µM.
Consider `CCOC(=O)C1=C(O)/C(=C\c2sccc2C)N=C1C`, for which the AC50 was > 30 µM (inactive).
Take `Cc1ccc(SCCc2cc[n+](CC(=O)c3ccccc3)cc2)cc1`: the AC50 was > 30 µM (inactive).
As for `COc1cc2c(C#N)c(N3CCCC3)nc(N)c2c(N)n1`, the figure is > 30 µM (inactive); as for `COc1ccc(OCc2nc(N)nc(Nc3ccccc3)n2)cc1`, > 30 µM (inactive); as for `COc1ccc(CCNC2=C(Cl)C(=O)N(Cc3ccccc3)C2=O)cc1OC`, > 30 µM (inactive).
Consider `C#CCSc1nnc(-c2ccc(O)cc2)o1`, for which the AC50 is 25.5 µM.
For `O=C(NC1CCCC1)c1ccc(Cn2c(=O)[nH]c3ccsc3c2=O)cc1`, the AC50 was > 30 µM (inactive).
For `CN1CCN(c2ccccc2NC(=O)c2ccc(-c3ccccc3[N+](=O)[O-])o2)CC1`, the AC50 is 4.6 µM.
With `COc1cc(Br)c(C2C(C#N)=C(N)Oc3n[nH]c(-c4cccnc4)c32)cc1OC` (stereo unspecified), the AC50 is > 30 µM (inactive).
As for `CN(CCO)c1ncnc2c1sc1nc(N3CCOCC3)c3c(c12)CCC3`, the figure is > 30 µM (inactive).
As to `O=[N+]([O-])c1ccc(Nc2nc(NC3CCCCC3)nc(N3CCCC3)n2)cc1`, the AC50 is > 30 µM (inactive).
Turning to `NC(=O)c1ccsc1NC(=O)COC(=O)Cc1ccsc1`, the concentration at half-maximal activity (AC50) was 28.6 µM.
As to `O=c1[nH]nc(SCCS(=O)(=O)c2ccc(F)cc2)n1-c1ccccc1C(F)(F)F`, the AC50 is 17.5 µM.
Turning to `COc1cc(/C=C2/NC(=O)NC2=O)cc(Br)c1OCc1cccc(C(=O)O)c1`, the AC50 was 6.54 µM.
As to `COCCNc1nnc(SCC(=O)NC2CCCCC2)s1`, the AC50 was > 30 µM (inactive).
Consider `CCOC(=O)/C(C#N)=C1/SC(CCO)C(=O)N1c1ccccc1` (stereo unspecified), for which the concentration at half-maximal activity (AC50) was 13.1 µM.
For the compound `O=[N+]([O-])c1cc(C(F)(F)F)ccc1NCCCN1CCOCC1`, the AC50 is > 30 µM (inactive).
To `C/C(CC(=O)N(C(C)C)C(C)C)=N\NC(=O)COc1ccc(Br)cc1Br` belongs > 30 µM (inactive).
As for `CCOC(=O)CC(C#N)c1c[nH]c2ccccc12` (stereo unspecified), the figure is > 30 µM (inactive).
